Reference: patent publication US10259781B2, “Imaging agents” (THE REGENTS OF THE UNIVERSITY OF MICHIGAN, priority 2012, dated 2019)
One block for each molecule: values may come before it.

What was measured:
[1] = test system: cardiac sympathetic neurons; assay: Isolated working rat heart model: neuronal uptake and clearance kinetics
Experimental: (§1) The radiotracer was infused into the heart for 10 minutes to measure the tracer uptake rate into cardiac sympathetic neurons (Kup, shown in units of ml/min/g tissue wet). Then, the heart was infused with normal heart perfusate to measure the tracer clearance rate from the heart over 2 hours.
(§2) Experiments were conducted to test ^11C-phenoxyethylguanidine (PEG), e.g., to establish baseline values for the NET transport rate (Kup, expressed in units of mL perfusate/min/g wet) and the clearance rate from sympathetic neurons (T1/2, expressed in units of hours).

[2] = Metabolic breakdown in monkey plasma (reverse-phase HPLC of venous blood samples); type: in vivo, rhesus macaque monkey; conditions: monkey plasma
Experimental: In some of the microPET studies, venous blood samples (e.g., n=6) were drawn to assess the metabolic breakdown of [^18F]4F-MHPG in plasma (see Table 1). Plasma was processed for injection onto a reverse-phase HPLC system equipped with a radiation detector. The percentages of intact parent tracer and radiolabeled metabolites were determined as a function of time. In this system, [^18F]4-MHPG has a retention time Rt of approximately 11.2 minutes while the main polar radiometabolite formed has an Rt of approximately 7.9 minutes.

[3] = test system: cardiac sympathetic neurons (NET-mediated neuronal uptake); assay: Isolated working rat heart model: neuronal uptake and clearance kinetics; conditions: isolated working rat heart (perfused, ex vivo), read-out: clearance rate from sympathetic neurons, major half-time (T1/2) (converted)
Experimental: as §1, §2

Biodistribution in rats = type: in vivo, rat; conditions: 30 minutes after injection, n=5
Experimental: During the development of embodiments of the technology, data were collected from bioevaluation studies of [^18F]4F-MHPG. […]
During the development of embodiments of the technology provided herein, the biodistribution of [^18F]4F-MHPG into the organs of rats was assessed. In particular, four time points (Table 3) were collected and used to derive human radiation absorbed dose estimates using the OLINDA/EXM 1.0 software package (see, e.g., Stabin et al. (2005) “OLINDA/EXM; the second-generation personal computer software for internal dose assessment in nuclear medicine”, J Nucl Med. 46: 1023-7). […] These values were entered into the Dynamic Bladder model of OLINDA/EXM, assuming a 4.0-hour void interval. Organs with the highest absorbed dose estimates included the urinary bladder wall (0.666 rad/mCi), […] (0.221 rad/mCi), small intestine (0.201 rad/mCi), and the heart wall (0.201 rad/mCi). An ‘effective dose’ of 0.091 rem/mCi was estimated for [^18F]4F-MHPG. Under United States Federal Regulations governing research with a new radiopharmaceutical (21 CFR § 361.1), the maximum allowable radiation absorbed dose to an individual organ (other than the gonads) is 5 rad. Considering the maximum estimated absorbed dose (urinary bladder wall; 0.666 rad/mCi), initial PET studies in human subjects could use a maximum of 7.5 mCi of [^18F]4F-MHPG. This would correspond to an ‘effective dose’ of 0.68 rem.

[4] = test system: cardiac sympathetic nerve terminals; assay: MicroPET imaging and myocardial kinetics (compartmental modeling, Patlak graphical analysis) in monkeys; type: in vivo, rhesus macaque monkey; conditions: indirect evidence from myocardial kinetics in monkeys
Experimental: A series of microPET imaging studies were performed in the macaque model to assess image quality and tracer kinetics. In most of these the time course of the metabolic breakdown of [^18F]4F-MHPG in plasma was also determined. The studies are summarized below in Table 1.
During the development of embodiments of the technology provided herein, the kinetics of [^18F]4F-MHPG in monkey hearts was assessed using either compartmental modeling or Patlak graphical analysis to obtain quantitative measures of regional cardiac sympathetic nerve density.
For some analyses, a simplified compartmental model that assumed irreversible trapping inside nerve terminals was used to estimate the model rate constants K1 (ml/min/g), k2 (min^−1), k3 (min^−1), and a blood volume fraction BV (dimensionless) (see, e.g., FIG. 7). In both the control studies and DMI blocking studies, the model quickly converged to a single global minimum in just a few iterations of the nonlinear regression analysis (FIG. 8). […] This aggregate parameter provides a stable measure of cardiac nerve density that declined in a dose-dependent manner with increasing DMI dose (FIG. 9, “Kinetic modeling”).
For some analyses, Patlak graphical analysis was used, which uses a mathematical transformation of the kinetic data Cp(t) and Ct(t) to generate a Tatlak plot′ having a characteristic linear phase (see, e.g., Patlak and Blasberg (1985) “Graphical evaluation of blood-to-brain transfer constants from multiple-time uptake data. Generalizations.” J Cereb Blood Flow 5: 584-90). The slope of the linear portion of a Patlak plot, Kp (ml/min/g), provides an alternate estimate of the ‘net uptake rate constant’ Ki (ml/min/g). Thus, for the model structure used (FIG. 7), the slope of the Patlak plot is given by Kp≈(K1k3)/(k2+k3).
During the development of embodiments of the technology provided herein, the myocardial kinetics of [^18F]4F-MHPG was assessed using Patlak graphical analysis and metabolite-corrected plasma input functions. In this example, the Patlak plot is highly linear (r^2=1.00) and the estimated Patlak slope Kpatlak=0.252 ml/min/g. […] As such, regional estimates of the Patlak slope from Patlak analysis of the kinetics of [^18F]4F-MHPG serve as robust measures of regional cardiac sympathetic nerve density in patients with heart diseases.

Compound: N=[11C](N)NCCOc1ccc(F)c(O)c1 [^11C-4F-MHPEG, ^11C-4-fluoro-meta-phenoxyethylguanidine]
neuronal uptake rate / NET transport rate (Kup) [1]: 2.66 mL/min/g wet
vesicular trapping / retention [1]: effectively trapped inside storage vesicles

T1/2 for metabolic breakdown in plasma [2]: approximately 13 minutes
Compound: N=[11C](N)NCC(O)c1cccc(O)c1 (centres unmarked) [GMO, [^11C]guanyl-meta-octopamine, reference compound]

Compound: N=[11C](N)NCCOc1ccc(O)c(F)c1 [^11C-3F-PHPEG, ^11C-3-fluoro-para-hydroxy-phenoxyethylguanidine]
neuronal uptake rate / NET transport rate (Kup) [1]: 4.26 mL/min/g wet

half-life [3]: 5.7 h
Compound: N=C(N)NCCOc1ccccc1 [PEG, ^11C-phenoxyethylguanidine]
neuronal uptake rate / NET transport rate (Kup) [1]: 5.37 mL/min/g wet

Compound: N=C(N)NCC1COc2ccc(O)cc2O1 (centres unmarked) [^11C-7H-GOX, ^11C-7-hydroxy-guanoxan]
retention time, compared between the two ring hydroxylated guanoxan analogs [1]: longer retention time
uptake, compared between the two ring hydroxylated guanoxan analogs [1]: more rapid uptake

half-life [3]: 3.5 h
Compound: N=C(N)NCCOc1ccc(F)cc1 [4F-PEG, ^11C-4-fluoro-phenoxyethylguanidine]
neuronal uptake rate / NET transport rate (Kup) [1]: 7.25 mL/min/g wet

Compound: N=C(N)NCCOc1cccc(O)c1 [MHPEG, ^11C-meta-hydroxy-phenoxyethylguanidine]
neuronal uptake rate / NET transport rate (Kup) [1]: 5.37 mL/min/g wet
vesicular trapping / retention [1]: complete trapping

Compound: N=C(N)NCCc1ccc(F)c(O)c1 [[^11C]4F-MHPG] [^11C-4-fluoro-meta-hydroxyphenethylguanidine]
tissue concentration, adrenal medulla (Biodistribution in rats): 0.56 ± 0.21 percentage of the injected dose per gram
tissue concentration, blood (Biodistribution in rats): 0.08 ± 0.01 percentage of the injected dose per gram
tissue concentration, left ventricle (Biodistribution in rats): 1.77 ± 0.27 percentage of the injected dose per gram
tissue concentration, liver (Biodistribution in rats): 1.22 ± 0.18 percentage of the injected dose per gram
tissue concentration, lung (Biodistribution in rats): 0.56 ± 0.15 percentage of the injected dose per gram
tissue concentration, muscle (Biodistribution in rats): 0.07 ± 0.01 percentage of the injected dose per gram
tissue concentration, spleen (Biodistribution in rats): 0.52 ± 0.10 percentage of the injected dose per gram

Compound: N=C(N)NCCc1ccc([18F])c(OS(=O)(=O)O)c1 [sulfur conjugate of [^18F]4-MHPG]
activity at the norepinephrine transporter (NET) [4]: inactive
